Read-outs that look alike come from different tables or passages of the source.
What was measured:
Abl (Q252H) (h) = biological target: T1, Abl (Q252H) (h) (Homo sapiens, UniProt P00519, Q252H); assay: Kinase panel; type: biochemical
T1 construct: purchased Millipore KinaseProfiler

TSSK2(h) = biological target: T2, TSSK2(h) (Homo sapiens, UniProt Q96PF2); assay: Kinase panel; type: biochemical
T2 construct: purchased Millipore KinaseProfiler
T2 sequence (Q96PF2 1-358): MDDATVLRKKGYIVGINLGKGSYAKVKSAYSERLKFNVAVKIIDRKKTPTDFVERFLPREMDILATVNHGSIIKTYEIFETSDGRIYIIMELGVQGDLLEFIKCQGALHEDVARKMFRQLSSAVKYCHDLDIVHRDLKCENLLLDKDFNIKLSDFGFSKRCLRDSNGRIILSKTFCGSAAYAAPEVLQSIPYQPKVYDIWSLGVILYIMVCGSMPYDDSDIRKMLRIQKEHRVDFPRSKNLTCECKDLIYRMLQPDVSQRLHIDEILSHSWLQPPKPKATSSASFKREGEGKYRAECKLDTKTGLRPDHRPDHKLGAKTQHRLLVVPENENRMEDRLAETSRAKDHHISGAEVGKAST

SAPK2a(h) = biological target: T3, SAPK2a(h) (Homo sapiens, UniProt Q16539); assay: Kinase panel; type: biochemical
T3 construct: purchased Millipore KinaseProfiler
T3 sequence (Q16539 whole entry): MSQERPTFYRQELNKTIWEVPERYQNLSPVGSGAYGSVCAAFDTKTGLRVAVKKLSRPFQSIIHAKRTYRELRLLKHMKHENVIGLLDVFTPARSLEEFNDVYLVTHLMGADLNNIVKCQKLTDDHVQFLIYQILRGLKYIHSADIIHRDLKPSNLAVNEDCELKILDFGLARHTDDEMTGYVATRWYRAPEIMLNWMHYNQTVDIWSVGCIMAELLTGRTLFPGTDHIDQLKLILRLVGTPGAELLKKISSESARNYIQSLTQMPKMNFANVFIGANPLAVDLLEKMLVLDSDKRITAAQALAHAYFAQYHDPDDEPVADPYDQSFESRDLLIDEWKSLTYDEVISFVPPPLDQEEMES

CaMKI(h) = biological target: T4, CaMKI(h) (Homo sapiens, UniProt Q14012); assay: Kinase panel; type: biochemical
T4 construct: purchased Millipore KinaseProfiler
T4 sequence (Q14012 whole entry): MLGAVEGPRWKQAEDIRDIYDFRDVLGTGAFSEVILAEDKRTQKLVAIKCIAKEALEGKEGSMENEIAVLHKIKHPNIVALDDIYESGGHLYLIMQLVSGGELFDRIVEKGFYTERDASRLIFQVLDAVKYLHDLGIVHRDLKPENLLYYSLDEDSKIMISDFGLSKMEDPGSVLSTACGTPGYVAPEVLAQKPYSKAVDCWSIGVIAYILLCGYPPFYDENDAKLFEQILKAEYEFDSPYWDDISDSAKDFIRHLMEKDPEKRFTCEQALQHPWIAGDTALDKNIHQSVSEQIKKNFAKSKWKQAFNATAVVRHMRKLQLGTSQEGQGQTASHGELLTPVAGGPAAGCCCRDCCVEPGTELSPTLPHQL

[1] = system: AKT substrate phosphorylation in BT474; assay: Western analysis of AKT signaling; type: cell-based, human; conditions: BT474, 1 h
Protocol: (§1) Cells treated with DMSO or compounds for different duration were lysed using RIPA buffer (Teknova) containing protease and phosphatase inhibitors (Sigma Aldrich). Equal amounts of protein were resolved in 4–12% SDS-PAGE gels (Invitrogen), transferred onto 0.45 µm PVDF membrane (Invitrogen), and incubated with primary antibodies (1∶1000 dilution) overnight. Antibodies for AKT, phospho-AKT (Ser473 and Thr308), phospho-FOXO (Thr24/32), phospho-MEK1/2 (Ser217/221) were purchased from Cell Signaling Technologies. Phospho-GSK3β (Ser9) antibody was from R&D Systems. PRAS40 and phospho-PRAS40 (Thr246) antibodies were obtained from Millipore. Phospho-ERK1/2 (Tyr204), ERK1/2, and phospho-Caspase 9 (Ser196) antibodies were purchased from Santa Cruz Biotechnologies. Tubulin antibodies were purchased from Sigma Aldrich. Following incubation with primary antibody, blots were washed and incubated with IRDye-680 goat-anti-mouse or IRDye-800CW goat-anti-rabbit antibodies (1; 10,000 dilution; LI-COR) for 1 h. Following thorough washing, blots were analyzed using an infrared imaging system (LI-COR).

[2] = system: AKT substrate phosphorylation in LNCaP; assay: Western analysis of AKT signaling; type: cell-based, human; conditions: 1 h
Protocol: as §1

Fyn(h) = biological target: T5, Fyn(h) (Homo sapiens, UniProt P06241); assay: Kinase panel; type: biochemical
T5 construct: purchased Millipore KinaseProfiler
T5 sequence (P06241 whole entry): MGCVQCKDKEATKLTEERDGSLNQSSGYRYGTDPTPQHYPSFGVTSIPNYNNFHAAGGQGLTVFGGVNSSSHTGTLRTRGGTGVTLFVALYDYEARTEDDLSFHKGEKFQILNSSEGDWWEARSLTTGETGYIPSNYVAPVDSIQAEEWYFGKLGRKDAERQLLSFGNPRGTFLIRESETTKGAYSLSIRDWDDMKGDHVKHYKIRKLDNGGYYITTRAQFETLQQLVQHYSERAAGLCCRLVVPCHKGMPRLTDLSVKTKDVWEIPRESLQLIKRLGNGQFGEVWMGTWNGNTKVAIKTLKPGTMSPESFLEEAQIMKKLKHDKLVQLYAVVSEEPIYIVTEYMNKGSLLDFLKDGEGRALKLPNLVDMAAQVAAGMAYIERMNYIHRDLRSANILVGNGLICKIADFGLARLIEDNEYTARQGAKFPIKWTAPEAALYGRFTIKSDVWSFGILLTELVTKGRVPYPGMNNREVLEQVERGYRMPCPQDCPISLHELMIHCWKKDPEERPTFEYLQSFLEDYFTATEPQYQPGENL

CDK2/cyclinE(h) = biological target: T6, CDK2/cyclinE(h) (Homo sapiens, UniProt P24941); assay: Kinase panel; type: biochemical
T6 construct: purchased Millipore KinaseProfiler

EGFR(T790M)(h) = biological target: T7, EGFR(T790M)(h) (Homo sapiens, UniProt P00533, T790M); assay: Kinase panel; type: biochemical
T7 construct: purchased Millipore KinaseProfiler
T7 sequence (P00533 25-1210 T790M): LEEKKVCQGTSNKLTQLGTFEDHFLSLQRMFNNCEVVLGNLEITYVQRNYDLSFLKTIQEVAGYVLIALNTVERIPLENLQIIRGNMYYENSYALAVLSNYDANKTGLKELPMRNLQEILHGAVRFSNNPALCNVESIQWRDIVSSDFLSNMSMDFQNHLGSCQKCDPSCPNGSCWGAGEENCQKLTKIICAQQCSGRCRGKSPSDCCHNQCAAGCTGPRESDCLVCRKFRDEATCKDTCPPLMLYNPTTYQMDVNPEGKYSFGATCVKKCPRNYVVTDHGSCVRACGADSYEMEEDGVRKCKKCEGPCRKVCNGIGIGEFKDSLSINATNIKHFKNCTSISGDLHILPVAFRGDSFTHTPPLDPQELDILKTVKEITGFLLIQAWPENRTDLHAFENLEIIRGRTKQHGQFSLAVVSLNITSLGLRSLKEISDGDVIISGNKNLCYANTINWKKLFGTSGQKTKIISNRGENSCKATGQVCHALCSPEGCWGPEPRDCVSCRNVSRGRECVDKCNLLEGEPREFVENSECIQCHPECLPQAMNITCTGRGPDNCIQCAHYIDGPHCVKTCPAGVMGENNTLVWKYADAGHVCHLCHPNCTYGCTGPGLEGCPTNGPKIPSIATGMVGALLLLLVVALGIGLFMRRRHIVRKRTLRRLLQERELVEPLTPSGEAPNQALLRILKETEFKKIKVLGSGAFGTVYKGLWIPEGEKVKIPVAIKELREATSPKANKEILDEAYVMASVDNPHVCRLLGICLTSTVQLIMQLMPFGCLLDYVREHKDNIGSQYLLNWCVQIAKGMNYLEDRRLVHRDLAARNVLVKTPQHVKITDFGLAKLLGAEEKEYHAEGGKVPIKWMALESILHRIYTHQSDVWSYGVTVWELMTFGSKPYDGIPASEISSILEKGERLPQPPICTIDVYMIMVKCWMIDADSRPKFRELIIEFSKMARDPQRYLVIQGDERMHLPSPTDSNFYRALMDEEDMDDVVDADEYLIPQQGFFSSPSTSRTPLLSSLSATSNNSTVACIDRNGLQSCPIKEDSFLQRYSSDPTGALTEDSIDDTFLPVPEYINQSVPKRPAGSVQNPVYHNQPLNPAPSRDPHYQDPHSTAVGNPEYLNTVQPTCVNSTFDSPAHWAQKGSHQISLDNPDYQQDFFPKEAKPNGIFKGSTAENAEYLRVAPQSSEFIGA

EphB1(h) = biological target: T8, EphB1(h) (Homo sapiens, UniProt P54762); assay: Kinase panel; type: biochemical
T8 construct: purchased Millipore KinaseProfiler
T8 sequence (P54762 18-984): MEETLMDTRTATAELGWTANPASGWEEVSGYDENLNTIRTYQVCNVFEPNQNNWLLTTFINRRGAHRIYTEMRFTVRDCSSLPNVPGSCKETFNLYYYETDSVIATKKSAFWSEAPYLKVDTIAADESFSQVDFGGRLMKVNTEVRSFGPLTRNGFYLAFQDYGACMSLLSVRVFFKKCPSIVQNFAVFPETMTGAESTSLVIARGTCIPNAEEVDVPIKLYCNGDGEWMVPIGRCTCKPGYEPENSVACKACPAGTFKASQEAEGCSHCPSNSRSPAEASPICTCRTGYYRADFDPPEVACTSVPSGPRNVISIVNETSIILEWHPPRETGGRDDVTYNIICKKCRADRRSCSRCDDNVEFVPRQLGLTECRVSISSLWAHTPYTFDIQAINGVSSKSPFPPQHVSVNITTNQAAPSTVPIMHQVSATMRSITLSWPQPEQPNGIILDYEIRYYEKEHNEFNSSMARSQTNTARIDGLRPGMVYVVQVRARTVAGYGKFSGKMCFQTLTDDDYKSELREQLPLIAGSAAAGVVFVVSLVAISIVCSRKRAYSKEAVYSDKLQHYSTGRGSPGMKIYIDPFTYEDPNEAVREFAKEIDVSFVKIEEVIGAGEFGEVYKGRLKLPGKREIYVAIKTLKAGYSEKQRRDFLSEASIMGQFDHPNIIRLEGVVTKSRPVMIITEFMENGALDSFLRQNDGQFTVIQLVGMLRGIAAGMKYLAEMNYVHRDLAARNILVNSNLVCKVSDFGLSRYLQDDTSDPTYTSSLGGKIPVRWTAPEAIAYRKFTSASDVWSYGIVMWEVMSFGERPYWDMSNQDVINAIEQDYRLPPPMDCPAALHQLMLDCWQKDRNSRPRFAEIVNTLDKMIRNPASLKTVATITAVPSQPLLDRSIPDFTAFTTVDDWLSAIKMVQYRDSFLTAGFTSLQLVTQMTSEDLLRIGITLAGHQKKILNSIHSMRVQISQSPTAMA

DRAK1(h) = biological target: T9, DRAK1(h) (Homo sapiens, UniProt Q9UEE5); assay: Kinase panel; type: biochemical
T9 construct: purchased Millipore KinaseProfiler
T9 sequence (Q9UEE5 1-414): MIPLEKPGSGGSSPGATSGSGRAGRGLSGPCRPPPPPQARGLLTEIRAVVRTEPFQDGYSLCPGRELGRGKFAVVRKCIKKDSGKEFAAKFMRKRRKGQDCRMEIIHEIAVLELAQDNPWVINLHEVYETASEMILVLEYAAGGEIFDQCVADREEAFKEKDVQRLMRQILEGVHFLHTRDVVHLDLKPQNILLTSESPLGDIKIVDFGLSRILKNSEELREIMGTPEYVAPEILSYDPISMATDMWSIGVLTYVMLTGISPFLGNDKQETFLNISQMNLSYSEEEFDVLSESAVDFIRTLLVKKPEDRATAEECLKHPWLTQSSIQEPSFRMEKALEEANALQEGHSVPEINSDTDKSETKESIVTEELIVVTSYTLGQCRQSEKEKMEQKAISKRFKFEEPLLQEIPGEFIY

Question: For `Cn1ncc(Cl)c1-c1cc(C(=O)N[C@H](CN)Cc2ccc(F)c(F)c2)oc1Cl` [GSK2141795], which inhibition at 0.5 µM (Abl (Q252H) (h); 0.5 µM, read-out: % Inhibition) is on record?
Answer: -1%

Question: What about the inhibition at 10 µM (Abl (Q252H) (h); 10 µM, read-out: % Inhibition) of the same molecule?
Answer: 3%

Question: And the inhibition at 0.5 µM (TSSK2(h); 0.5 µM, read-out: % Inhibition)?
Answer: 7%

Question: And the inhibition at 10 µM (TSSK2(h); 10 µM, read-out: % Inhibition)?
Answer: 53%

Question: What about the inhibition at 0.5 µM (SAPK2a(h); 0.5 µM, read-out: % Inhibition) of the same molecule?
Answer: -7%

Question: And the inhibition at 10 µM (SAPK2a(h); 10 µM, read-out: % Inhibition)?
Answer: -3%

Question: And the inhibition at 0.5 µM (CaMKI(h); 0.5 µM, read-out: % Inhibition)?
Answer: -30%

Question: What about the inhibition at 10 µM (CaMKI(h); 10 µM, read-out: % Inhibition) of the same molecule?
Answer: 16%

Question: What about the “AKT substrate phosphorylation levels (GSK3β, PRAS40, FOXO, Caspase 9)” value (from here on “AKT substrate phosphorylation levels”) [1] of the same molecule?
Answer: concentration-dependent effect

Question: And the “AKT substrate phosphorylation levels” value [2]?
Answer: concentration-dependent effect

Question: And the inhibition at 0.5 µM (Fyn(h); 0.5 µM, read-out: % Inhibition)?
Answer: -8%

Question: What about the inhibition at 10 µM (Fyn(h); 10 µM, read-out: % Inhibition) of the same molecule?
Answer: 10%

Question: What about the inhibition at 0.5 µM (CDK2/cyclinE(h); 0.5 µM, read-out: % Inhibition) of the same molecule?
Answer: -2%

Question: And the inhibition at 10 µM (CDK2/cyclinE(h); 10 µM, read-out: % Inhibition)?
Answer: 29%

Question: What about the inhibition at 0.5 µM (EGFR(T790M)(h); 0.5 µM, read-out: % Inhibition) of the same molecule?
Answer: -5%

Question: What about the inhibition at 10 µM (EGFR(T790M)(h); 10 µM, read-out: % Inhibition) of the same molecule?
Answer: 2%

Question: What about the inhibition at 0.5 µM (EphB1(h); 0.5 µM, read-out: % Inhibition) of the same molecule?
Answer: -5%

Question: And the inhibition at 10 µM (EphB1(h); 10 µM, read-out: % Inhibition)?
Answer: -5%

Question: What about the inhibition at 0.5 µM (DRAK1(h); 0.5 µM, read-out: % Inhibition) of the same molecule?
Answer: -18%

Question: What about the inhibition at 10 µM (DRAK1(h); 10 µM, read-out: % Inhibition) of the same molecule?
Answer: 24%

Question: For `Cn1ncc(Cl)c1-c1cc(C(=O)N[C@H](CN)Cc2cccc(F)c2)sc1Cl` [GSK2110183], which inhibition at 0.5 µM (Abl (Q252H) (h)) is on record?
Answer: 6%

Question: And the inhibition at 10 µM (Abl (Q252H) (h))?
Answer: 11%

Question: And the inhibition at 0.5 µM (TSSK2(h))?
Answer: 4%

Question: What about the inhibition at 10 µM (TSSK2(h)) of the same molecule?
Answer: 44%

Question: What about the inhibition at 0.5 µM (SAPK2a(h)) of the same molecule?
Answer: -13%

Question: What about the inhibition at 10 µM (SAPK2a(h)) of the same molecule?
Answer: -8%

Question: What about the inhibition at 0.5 µM (CaMKI(h)) of the same molecule?
Answer: 3%

Question: And the inhibition at 10 µM (CaMKI(h))?
Answer: 24%

Question: What about the “AKT substrate phosphorylation levels” value [1] of the same molecule?
Answer: concentration-dependent effect

Question: And the “AKT substrate phosphorylation levels” value [2]?
Answer: concentration-dependent effect

Question: And the inhibition at 0.5 µM (Fyn(h))?
Answer: -3%

Question: What about the inhibition at 10 µM (Fyn(h)) of the same molecule?
Answer: 12%

Question: What about the inhibition at 0.5 µM (CDK2/cyclinE(h)) of the same molecule?
Answer: 3%

Question: What about the inhibition at 10 µM (CDK2/cyclinE(h)) of the same molecule?
Answer: 12%

Question: And the inhibition at 0.5 µM (EGFR(T790M)(h))?
Answer: -1%

Question: And the inhibition at 10 µM (EGFR(T790M)(h))?
Answer: 2%

Question: What about the inhibition at 0.5 µM (EphB1(h)) of the same molecule?
Answer: -2%

Question: What about the inhibition at 10 µM (EphB1(h)) of the same molecule?
Answer: -4%

Question: What about the inhibition at 0.5 µM (DRAK1(h)) of the same molecule?
Answer: 10%

Question: And the inhibition at 10 µM (DRAK1(h))?
Answer: 40%

— paper PMC4076210, “Discovery of Novel AKT Inhibitors with Enhanced Anti-Tumor Effects in Combination with the MEK Inhibitor” (PLoS ONE, 2014)
